From ChEMBL document CHEMBL1128521, “Partial GABAA receptor agonists. Synthesis and in vitro pharmacology of a series of nonannulated analogs of 4,5,6,7-tetrahydroisoxazolo[5,4-c]pyridin-3-ol” (J Med Chem, 1995)

Tests used:
[1] = Reversal potential is determined electrophysiologically against the GABA A receptor; assay type: functional
GABA B receptor = GABA B receptor (Rattus norvegicus, UniProt O88871+Q9Z0U4)
[2] = target: GABA-A receptor; anion channel
Rattus norvegicus = species on record: Rattus norvegicus; experiment: cells; assay type: functional, organism-based; settings: Brain

Chain of GABA B receptor (Q9Z0U4 whole entry): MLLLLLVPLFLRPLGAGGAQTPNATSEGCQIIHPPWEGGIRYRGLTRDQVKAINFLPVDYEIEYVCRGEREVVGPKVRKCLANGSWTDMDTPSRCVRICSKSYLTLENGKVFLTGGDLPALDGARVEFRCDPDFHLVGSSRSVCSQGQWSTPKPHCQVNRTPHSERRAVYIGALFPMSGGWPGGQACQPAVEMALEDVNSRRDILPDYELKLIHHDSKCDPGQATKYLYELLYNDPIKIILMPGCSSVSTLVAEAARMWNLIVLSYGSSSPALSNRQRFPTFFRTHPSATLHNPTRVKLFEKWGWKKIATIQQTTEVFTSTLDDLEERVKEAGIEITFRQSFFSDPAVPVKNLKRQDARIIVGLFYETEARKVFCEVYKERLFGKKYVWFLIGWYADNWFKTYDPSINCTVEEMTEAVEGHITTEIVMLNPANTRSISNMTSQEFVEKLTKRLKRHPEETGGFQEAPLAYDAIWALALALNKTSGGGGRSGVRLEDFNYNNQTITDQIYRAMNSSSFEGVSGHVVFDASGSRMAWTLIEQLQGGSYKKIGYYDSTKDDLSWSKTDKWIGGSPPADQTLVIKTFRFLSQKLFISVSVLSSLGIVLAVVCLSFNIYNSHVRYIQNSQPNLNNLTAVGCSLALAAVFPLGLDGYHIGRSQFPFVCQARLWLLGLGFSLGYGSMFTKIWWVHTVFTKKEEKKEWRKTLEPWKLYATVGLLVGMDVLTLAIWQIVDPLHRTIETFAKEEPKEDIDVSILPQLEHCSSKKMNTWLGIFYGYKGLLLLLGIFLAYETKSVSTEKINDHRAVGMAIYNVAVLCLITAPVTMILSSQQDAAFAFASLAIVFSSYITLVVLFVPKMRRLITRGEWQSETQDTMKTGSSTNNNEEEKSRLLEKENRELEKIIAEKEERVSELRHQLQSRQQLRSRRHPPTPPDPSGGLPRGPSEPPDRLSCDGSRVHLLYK
Chain of GABA B receptor (O88871 whole entry): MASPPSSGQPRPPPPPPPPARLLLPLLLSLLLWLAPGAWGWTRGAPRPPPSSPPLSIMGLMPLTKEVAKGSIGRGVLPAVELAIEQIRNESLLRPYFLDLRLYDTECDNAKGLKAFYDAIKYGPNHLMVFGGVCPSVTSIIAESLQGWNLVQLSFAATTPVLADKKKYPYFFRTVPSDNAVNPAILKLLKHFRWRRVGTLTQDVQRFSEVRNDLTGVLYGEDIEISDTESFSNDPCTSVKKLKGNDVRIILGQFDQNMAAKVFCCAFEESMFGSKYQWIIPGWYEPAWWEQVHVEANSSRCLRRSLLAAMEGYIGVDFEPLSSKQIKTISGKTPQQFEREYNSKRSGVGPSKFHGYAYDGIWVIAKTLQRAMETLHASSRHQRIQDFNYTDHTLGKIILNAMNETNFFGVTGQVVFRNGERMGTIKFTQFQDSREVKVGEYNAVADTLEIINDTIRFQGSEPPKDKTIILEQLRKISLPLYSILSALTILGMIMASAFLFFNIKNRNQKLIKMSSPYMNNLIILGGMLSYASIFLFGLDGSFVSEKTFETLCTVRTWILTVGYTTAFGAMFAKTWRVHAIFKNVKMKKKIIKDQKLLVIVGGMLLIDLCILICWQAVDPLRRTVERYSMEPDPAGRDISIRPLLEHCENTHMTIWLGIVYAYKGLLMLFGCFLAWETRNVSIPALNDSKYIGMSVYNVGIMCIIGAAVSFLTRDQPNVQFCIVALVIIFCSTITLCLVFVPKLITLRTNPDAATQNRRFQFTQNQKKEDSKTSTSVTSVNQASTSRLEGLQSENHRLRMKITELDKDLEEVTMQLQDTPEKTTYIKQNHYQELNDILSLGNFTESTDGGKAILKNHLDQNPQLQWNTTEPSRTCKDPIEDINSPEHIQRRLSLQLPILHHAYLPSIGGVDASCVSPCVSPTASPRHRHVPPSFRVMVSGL
Description for physchem: PKa values of the compound

| SMILES | Reverse potential [1] | IC50 (GABA B receptor) [µM] | IC50 [2] [µM] | IC50 (Rattus norvegicus) [µM] | pKa (physchem) |
| --- | --- | --- | --- | --- | --- |
| O=C(O)C1=CCNCC1 [ISOGUVACINE] | 5.2 | > 100 | 0.022 | > 300 | – |
| Oc1cc(C2=CCNCC2)sn1 | 5.3 | – | – | > 300 | – |
| O=C(O)CCC1=CCNCC1 | – | > 100 | > 100 | > 300 | – |
| Oc1cc(C2CCNCC2)sn1 | 5.5 | > 100 | 1.3 | > 300 | 6.9 |
| O=C(O)/C=C/C1=CCNCC1 | – | > 100 | > 100 | > 300 | – |
| O=C(O)/C=C/C1CCNCC1 | – | > 100 | 52 | > 300 | – |
| O=C(O)CCC1CCNCC1 | – | > 100 | > 100 | > 300 | – |
| Oc1cc(C2CCNCC2)on1 | 5.9 | – | – | > 300 | 5.3 |
| Oc1cc(C2=CCNCC2)on1 | 5.6 | > 100 | 32 | > 300 | 5.1 |
| O=c1cc(C2=CCNCC2)s[nH]1 | – | > 100 | – | – | – |
| Oc1cc(C2CCNCC2)no1 | 4.3 | > 100 | 26 | > 300 | – |
